Experimental data as given in ChEMBL document CHEMBL3259789, “Indothiazinone, an indolyl thiazolyl ketone from a novel myxobacterium belonging to the Sorangiineae” (J Nat Prod, 2014).
In brackets after ≈: the same amount, converted by molar mass. Activity calls are given as the source filed them. The rule behind the calls is not given here.

Columns and labels:
Pseudomonas aeruginosa [1] = assay: Antimicrobial activity against Pseudomonas aeruginosa DSM 50071 by serial dilution method; format: functional, organism-based
Bacillus subtilis [2] = assay: Antimicrobial activity against Bacillus subtilis DSM 10 by serial dilution method; format: functional
Pimelobacter simplex [3] = assay: Antimicrobial activity against Nocardioides simplex DSM 20130 by serial dilution method; format: functional
Nocardia sp. [4] = assay: Antimicrobial activity against Nocardia sp. DSM 43069 by serial dilution method; format: functional
Staphylococcus aureus [5] = assay: Antimicrobial activity against Staphylococcus aureus DSM 346 by serial dilution method; format: functional
[6] = test system: Mycolicibacterium diernhoferi; assay: Antimicrobial activity against Mycobacterium diernhoferi DSM 43524 by serial dilution method; format: functional
Micrococcus luteus [7] = assay: Antimicrobial activity against Micrococcus luteus DSM 20030 by serial dilution method; format: functional
Paenibacillus polymyxa [8] = assay: Antimicrobial activity against Paenibacillus polymyxa DSM 36 by serial dilution method; format: functional
[9] = test system: Chromobacterium violaceum; assay: Antimicrobial activity against Chromobacterium violaceum DSM 30191 by serial dilution method; format: functional
Escherichia coli [10] = assay: Antimicrobial activity against Escherichia coli DSM 1116 by serial dilution method; format: functional
Rhodotorula glutinis [11] = assay: Antimicrobial activity against Rhodotorula glutinis DSM 10134 by serial dilution method; format: functional
Candida albicans [12] = assay: Antimicrobial activity against Candida albicans DSM 1665 by serial dilution method; format: functional
Mucor hiemalis [13] = assay: Antimicrobial activity against Mucor hiemalis DSM 2656 by serial dilution method; format: functional
Micrococcus luteus [14] = assay: Antimicrobial activity against Micrococcus luteus DSM 20030 at 6.7 to 67 ug/ml by serial dilution method; format: functional, organism-based
Escherichia coli [15] = assay: Antimicrobial activity against Escherichia coli DSM 1116 at 6.7 to 67 ug/ml by serial dilution method; format: functional, organism-based
[16] = test system: Schizosaccharomyces pombe; assay: Antimicrobial activity against Schizosaccharomyces pombe DSM 70572 at 6.7 to 67 ug/ml by serial dilution method; format: functional, organism-based
Wickerhamomyces anomalus [17] = assay: Antimicrobial activity against Pichia anomala DSM 6766 at 6.7 to 67 ug/ml by serial dilution method; format: functional, organism-based
Eremothecium coryli [18] = assay: Antimicrobial activity against Nematospora coryli DSM 6981 by serial dilution method; format: functional
Trichosporon oleaginosus [19] = assay: Antimicrobial activity against Trichosporon oleaginosus DSM 11815 by serial dilution method; format: functional; conditions: Cutaneotrichosporon oleaginosum
Aspergillus clavatus [20] = assay: Antimicrobial activity against Aspergillus clavatus DSM 816 by serial dilution method; format: functional
Pimelobacter simplex [21] = assay: Antimicrobial activity against Nocardioides simplex DSM 20130 at 6.7 to 67 ug/ml by serial dilution method; format: functional
Nocardia sp. [22] = assay: Antimicrobial activity against Nocardia sp. DSM 43069 at 6.7 to 67 ug/ml by serial dilution method; format: functional, organism-based
Staphylococcus aureus [23] = assay: Antimicrobial activity against Staphylococcus aureus DSM 346 at 6.7 to 67 ug/ml by serial dilution method; format: functional, organism-based
[24] = test system: Mycolicibacterium diernhoferi; assay: Antimicrobial activity against Mycobacterium diernhoferi DSM 43524 at 6.7 to 67 ug/ml by serial dilution method; format: functional, organism-based
Paenibacillus polymyxa [25] = assay: Antimicrobial activity against Paenibacillus polymyxa DSM 36 at 6.7 to 67 ug/ml by serial dilution method; format: functional
Pseudomonas aeruginosa [26] = assay: Antimicrobial activity against Pseudomonas aeruginosa DSM 50071 at 6.7 to 67 ug/ml by serial dilution method; format: functional, organism-based
[27] = test system: Chromobacterium violaceum; assay: Antimicrobial activity against Chromobacterium violaceum DSM 30191 at 6.7 to 67 ug/ml by serial dilution method; format: functional, organism-based
Candida albicans [28] = assay: Antimicrobial activity against Candida albicans DSM 1665 at 6.7 to 67 ug/ml by serial dilution method; format: functional, organism-based
Saccharomyces cerevisiae [29] = assay: Antimicrobial activity against Saccharomyces cerevisiae BTc-3A at 6.7 to 67 ug/ml by serial dilution method; format: functional, organism-based
Pichia membranifaciens [30] = assay: Antimicrobial activity against Pichia membranifaciens DSM 21959 at 6.7 to 67 ug/ml by serial dilution method; format: functional, organism-based
Amorphotheca resinae [31] = assay: Antimicrobial activity against Hormoconis resinae DSM 1203 at 6.7 to 67 ug/ml by serial dilution method; format: functional, organism-based
Penicillium capsulatum [32] = assay: Antimicrobial activity against Penicillium capsulatum DSM 2210 at 6.7 to 67 ug/ml by serial dilution method; format: functional
Debaryomyces hansenii [33] = assay: Antimicrobial activity against Debaryomyces hansenii DSM 3428 at 6.7 to 67 ug/ml by serial dilution method; format: functional, organism-based
[34] = Cytotoxicity against mouse L929 cells after 5 days; format: cell-based; conditions: read-out: LC50
Bacillus subtilis [35] = assay: Antimicrobial activity against Bacillus subtilis DSM 10 at 6.7 to 67 ug/ml by serial dilution method; format: functional, organism-based
Rhodotorula glutinis [36] = assay: Antimicrobial activity against Rhodotorula glutinis DSM 10134 at 6.7 to 67 ug/ml by serial dilution method; format: functional, organism-based
Mucor hiemalis [37] = assay: Antimicrobial activity against Mucor hiemalis DSM 2656 at 6.7 to 67 ug/ml by serial dilution method; format: functional, organism-based
Eremothecium coryli [38] = assay: Antimicrobial activity against Nematospora coryli DSM 6981 at 6.7 to 67 ug/ml by serial dilution method; format: functional, organism-based
Trichosporon oleaginosus [39] = assay: Antimicrobial activity against Trichosporon oleaginosus DSM 11815 at 6.7 to 67 ug/ml by serial dilution method; format: functional; conditions: Cutaneotrichosporon oleaginosum
Aspergillus clavatus [40] = assay: Antimicrobial activity against Aspergillus clavatus DSM 816 at 6.7 to 67 ug/ml by serial dilution method; format: functional, organism-based
[41] = test system: Schizosaccharomyces pombe; assay: Antimicrobial activity against Schizosaccharomyces pombe DSM 70572 by serial dilution method; format: functional
Wickerhamomyces anomalus [42] = assay: Antimicrobial activity against Pichia anomala DSM 6766 by serial dilution method; format: functional, organism-based
Saccharomyces cerevisiae [43] = assay: Antimicrobial activity against Saccharomyces cerevisiae BTc-3A by serial dilution method; format: functional, organism-based
Pichia membranifaciens [44] = assay: Antimicrobial activity against Pichia membranifaciens DSM 21959 by serial dilution method; format: functional, organism-based
Amorphotheca resinae [45] = assay: Antimicrobial activity against Hormoconis resinae DSM 1203 by serial dilution method; format: functional, organism-based
Penicillium capsulatum [46] = assay: Antimicrobial activity against Penicillium capsulatum DSM 2210 by serial dilution method; format: functional
Debaryomyces hansenii [47] = assay: Antimicrobial activity against Debaryomyces hansenii DSM 3428 by serial dilution method; format: functional

Molecule | MIC (Pimelobacter simplex [3]) [µg/mL] | MIC (Rhodotorula glutinis [11]) [µg/mL] | MIC (Mucor hiemalis [13]) [µg/mL] | inhibition (Micrococcus luteus [14]) | inhibition (Escherichia coli [15]) | inhibition [16] | inhibition (Wickerhamomyces anomalus [17]) | MIC (Trichosporon oleaginosus [19]) [µg/mL] | MIC (Aspergillus clavatus [20]) [µg/mL] | inhibition (Staphylococcus aureus [23]) | inhibition [24] | inhibition (Paenibacillus polymyxa [25]) | inhibition (Pseudomonas aeruginosa [26]) | inhibition [27] | inhibition (Candida albicans [28]) | inhibition (Saccharomyces cerevisiae [29]) | inhibition (Pichia membranifaciens [30]) | inhibition (Amorphotheca resinae [31]) | inhibition (Penicillium capsulatum [32]) | CC50 at 120 h [34] [µg/mL] | also measured
GENTAMICIN |  |  |  |  |  |  |  |  |  |  |  |  |  |  |  |  |  |  |  |  | MIC (Pseudomonas aeruginosa [1]): 67 µg/mL
CN(C)[C@@H]1C(O)=C(C(N)=O)C(=O)[C@@]2(O)C(O)=C3C(=O)c4c(O)cccc4[C@@](C)(O)[C@H]3[C@H](O)[C@@H]12.Cl [OXYTETRACYCLINE HYDROCHLORIDE] | 16.6 |  |  |  |  |  |  |  |  |  |  |  |  |  |  |  |  |  |  |  | MIC (Bacillus subtilis [2]): 8.3 µg/mL; MIC (Nocardia sp. [4]): 8.3 µg/mL; MIC (Staphylococcus aureus [5]): 0.21 µg/mL; MIC [6]: < 0.25 µg/mL; MIC (Micrococcus luteus [7]): 3.3 µg/mL; MIC (Paenibacillus polymyxa [8]): 8.3 µg/mL; MIC [9]: 1 µg/mL; MIC (Escherichia coli [10]): 1 µg/mL
CC1=C(CCO)C(=O)c2ccccc2C1=O |  | 67 (≈ 310 µM) | 67 (≈ 310 µM) | inactive | inactive | inactive | inactive |  |  |  |  |  |  |  |  |  |  |  |  |  | MIC (Bacillus subtilis [2]): 33.3 µg/mL (≈ 154 µM); MIC (Staphylococcus aureus [5]): 33.3 µg/mL (≈ 154 µM); MIC [9]: 67 µg/mL (≈ 310 µM); MIC (Candida albicans [12]): 67 µg/mL (≈ 310 µM)
O=C(c1nccs1)c1c[nH]c2ccccc12 |  | 67 (≈ 294 µM) | 33.3 (≈ 146 µM) | inactive | inactive | inactive | inactive | 67 (≈ 294 µM) | 33.3 (≈ 146 µM) | inactive | inactive | inactive | inactive | inactive | inactive | inactive | inactive | inactive | inactive | > 10 | MIC (Eremothecium coryli [18]): 33.3 µg/mL (≈ 146 µM); inhibition (Pimelobacter simplex [21]): inactive; inhibition (Nocardia sp. [22]): inactive; inhibition (Debaryomyces hansenii [33]): inactive
CC(=O)/C=C/c1ccc2[nH]cc(CCO)c2c1 |  |  |  | inactive | inactive | inactive | inactive |  |  | inactive |  |  | inactive | inactive | inactive |  |  |  |  |  | inhibition (Bacillus subtilis [35]): inactive; inhibition (Rhodotorula glutinis [36]): inactive; inhibition (Mucor hiemalis [37]): inactive
C=C(C)/C=C/c1ccc2[nH]cc(CCO)c2c1 |  |  |  | inactive | inactive | inactive | inactive |  |  | inactive | inactive | inactive | inactive | inactive | inactive | inactive | inactive | inactive | inactive | > 10 | inhibition (Pimelobacter simplex [21]): inactive; inhibition (Nocardia sp. [22]): inactive; inhibition (Rhodotorula glutinis [36]): inactive; inhibition (Eremothecium coryli [38]): inactive; inhibition (Trichosporon oleaginosus [39]): inactive; inhibition (Mucor hiemalis [37]): inactive; inhibition (Aspergillus clavatus [40]): inactive; inhibition (Debaryomyces hansenii [33]): inactive
NYSTATIN |  | 0.52 | 2.1 |  |  |  |  | 1 | 2.1 |  |  |  |  |  |  |  |  |  |  |  | MIC [41]: 33.3 µg/mL; MIC (Candida albicans [12]): 4.2 µg/mL; MIC (Wickerhamomyces anomalus [42]): 4.2 µg/mL; MIC (Eremothecium coryli [18]): 4.2 µg/mL; MIC (Saccharomyces cerevisiae [43]): 1.7 µg/mL; MIC (Pichia membranifaciens [44]): 0.83 µg/mL; MIC (Amorphotheca resinae [45]): < 0.25 µg/mL; MIC (Penicillium capsulatum [46]): 16.6 µg/mL; MIC (Debaryomyces hansenii [47]): 6.7 µg/mL
C=C(C)/C=C/c1ccc2[nH]cc(C/C=N/O)c2c1 | 33.3 (≈ 139 µM) | 67 (≈ 279 µM) | 67 (≈ 279 µM) | inactive | inactive |  | inactive | 67 (≈ 279 µM) | 67 (≈ 279 µM) | inactive | inactive | inactive | inactive | inactive | inactive | inactive | inactive | inactive | inactive | 6.8 (≈ 28.3 µM) | MIC (Nocardia sp. [4]): 33.3 µg/mL (≈ 139 µM); MIC [41]: 67 µg/mL (≈ 279 µM); MIC (Debaryomyces hansenii [47]): 67 µg/mL (≈ 279 µM); inhibition (Eremothecium coryli [38]): inactive
C=C(C)/C=C/c1ccc2[nH]cc(C/C=N\O)c2c1 | 33.3 (≈ 139 µM) | 67 (≈ 279 µM) | 67 (≈ 279 µM) | inactive | inactive |  | inactive | 67 (≈ 279 µM) | 67 (≈ 279 µM) | inactive | inactive | inactive | inactive | inactive | inactive | inactive | inactive | inactive | inactive | 6.8 (≈ 28.3 µM) | MIC (Nocardia sp. [4]): 33.3 µg/mL (≈ 139 µM); MIC [41]: 67 µg/mL (≈ 279 µM); MIC (Debaryomyces hansenii [47]): 67 µg/mL (≈ 279 µM); inhibition (Eremothecium coryli [38]): inactive
